*1 amine or outer side, *2 acyl side, *3 side chain or, on linkers, in order; H or OH if unused. Where a SMILES comes first, the peptide text is derived from it. Side-chain parts run from the residue outwards. [ ]: non-standard residue; d: D form. The star is where a group is joined. C18 diacid = O=C(O)CCCCCCCCCCCCCCCCC(=O)*; γGlu = O=C(O)[C@H](CCC(=O)[*:2])N[*:1]; AEEA = NCCOCCOCC(=O)O; Aib = CC(C)(N)C(=O)O
How the values were obtained:
[1] = target: human GLP-1 receptor (hGLP-1R) (Homo sapiens, UniProt P43220); assay: cAMP HTRF assay, HEK-293 cell line over-expressing human GLP-1 receptor; type: cell-based; conditions: HEK-293, cAMP, 0% HSA
human GLP-1 receptor (hGLP-1R), sequence (P43220 24-463): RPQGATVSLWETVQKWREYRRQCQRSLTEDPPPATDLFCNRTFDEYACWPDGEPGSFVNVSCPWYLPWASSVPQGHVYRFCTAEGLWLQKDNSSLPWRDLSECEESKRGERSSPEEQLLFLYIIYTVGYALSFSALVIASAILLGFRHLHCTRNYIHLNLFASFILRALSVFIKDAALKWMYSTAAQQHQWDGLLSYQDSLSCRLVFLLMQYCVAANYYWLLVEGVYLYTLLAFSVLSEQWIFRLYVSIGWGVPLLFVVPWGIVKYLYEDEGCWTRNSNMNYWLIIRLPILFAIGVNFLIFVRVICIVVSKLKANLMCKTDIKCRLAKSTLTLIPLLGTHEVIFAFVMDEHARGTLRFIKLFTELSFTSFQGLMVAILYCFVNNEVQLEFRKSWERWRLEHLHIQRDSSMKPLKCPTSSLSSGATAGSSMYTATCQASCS
Protocol: Each vial contained 1.8 ml cells. The vials were slowly frozen to −80° C. in isopropanol, and then transferred in liquid nitrogen for storage.
Prior to their use, frozen cells were thawed quickly at 37° C. and washed (5 min at 900 rpm) with 20 ml cell buffer (1× HBSS; 20 mM HEPES, plus 0.1% HSA if indicated in Example conditions).
For measurement of cAMP generation, 5 μl cells (final 5000 cells/well) and 5 μl of test compound were added to a 384-well plate, followed by incubation for 30 min at room temperature.
The cAMP generated was determined using a kit from Cisbio Corp. based on HTRF (Homogenous Time Resolved Fluorescence). The cAMP assay was performed according to manufacturer's instructions (Cisbio).

human GIP receptor = target: T1, human GIP receptor (Homo sapiens, UniProt P48546); assay: cAMP HTRF assay in human adipocytes endogenously expressing the human GIP receptor; type: cell-based; conditions: for EC50: read-out: hGIPR EC50; for Emax: read-out: hGIPR Emax
T1 construct: human adipocytes endogenously expressing the human GIP receptor; host or cells: human preadipocytes (Lonza) differentiated to adipocytes
T1 sequence (P48546 22-466): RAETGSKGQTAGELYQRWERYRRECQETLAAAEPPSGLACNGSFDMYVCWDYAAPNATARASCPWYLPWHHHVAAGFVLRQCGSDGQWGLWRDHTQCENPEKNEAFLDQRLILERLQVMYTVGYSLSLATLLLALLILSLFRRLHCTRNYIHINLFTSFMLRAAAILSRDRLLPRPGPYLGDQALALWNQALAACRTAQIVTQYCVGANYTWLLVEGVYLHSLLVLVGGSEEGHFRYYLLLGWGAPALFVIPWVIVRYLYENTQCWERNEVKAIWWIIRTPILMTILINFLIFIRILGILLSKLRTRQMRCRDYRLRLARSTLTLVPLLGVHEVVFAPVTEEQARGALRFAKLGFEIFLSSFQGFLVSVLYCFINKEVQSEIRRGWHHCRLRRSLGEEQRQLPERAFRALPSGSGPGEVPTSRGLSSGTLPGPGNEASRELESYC
Protocol: For this, one vial of human preadipocytes (˜10^6 cells; Lonza) was thawed in a T-75 cell culture dish.
After 3 days, the cells were washed with PBS and 1.5 ml Trypsin, incubated for 4 min, then resuspended in medium, centrifugated for 10 min @ 300 rcf RT, resuspended again and distributed to four T-75 cell culture dishes.
After 5 days, the cells were washed with PBS and 1.5 ml Trypsin, incubated for 4 min, then resuspended in medium, centrifugated for 10 min @ 300 rcf RT, resuspended again and sawn in T-75 dishes (2.5×10^6 cells per dish) in 15 ml Differentiation medium each.
After 6 days of differentiation, 5000 cells per well were dispensed on a 96-well plate (#CLS3694 from Corning®, Sigma-Aldrich). For measurement of cAMP generation, 25 μL of test compound was added to each well of the 96-well plate, followed by incubation for 30 min at room temperature.
The cAMP generated following test compound stimulation was determined using a kit from Cisbio Corp. based on HTRF (Homogenous Time Resolved Fluorescence). The cAMP assay was performed according to manufacturer's instructions (Cisbio).
The cAMP content of cells was determined using a kit from Cisbio Corp. based on HTRF (Homogenous Time Resolved Fluorescence).

physchem = type: physicochemical; conditions: for Soluble amount: 24 h, pH 7.4; for solubility at 24 h: pH 7.4, Soluble amount
Protocol: Prior to the solubility measurement of a peptide batch, its purity was determined through UHPLC/MS. […] Therefore, solutions from solid samples were prepared in a buffer system with a concentration of 10 mg/ml compound based on the previously determined % purity: Solubility buffer system A) 100 mM phosphate buffer pH 7.4 […] Solubility buffer system C) 100 mM phosphate buffer pH 7.4, 2.7 mg/ml m-cresol UHPLC-UV was performed after 1 h of gentle agitation and storage at 5° C. over night (24 h) from the supernatant, which was obtained after 15 min of centrifugation at 2500 RCF (relative centrifugal acceleration). […] The different UV extinction coefficients of sample and reference peptide were calculated based on the different amino acid sequences and considered in the concentration calculation. The analytical method used was Analytical UHPLC Method A. Peptide samples were prepared in solubility buffer system A or C and solubility was assessed as described in Methods.

[2] = Chemical stability assessment (relative purity loss by UHPLC-UV); type: physicochemical
Protocol: Purity of a peptide batch was determined through UHPLC/MS prior to chemical stability measurement. The target concentration was […] pure compound. Solutions from solid samples were prepared in the following buffer systems with a concentration of ˜300 μM compound based on the previously determined % purity:
Chemical stability buffer system A) 20 mM phosphate buffer pH 7.4,
Chemical stability buffer system B) 8 mM phosphate buffer pH 7.4, 14 mg/ml propylene glycol, 5.5 mg/ml phenol
Chemical stability buffer system C) 100 mM phosphate buffer pH 7.4, 2.7 mg/ml m-cresol
Prepared solutions were filtered through […] pore size and filled into sterilized glass containers under laminar flow conditions.
Glass containers were stored for 28 days at 5 and 40° C. After this time, the samples were centrifuged for 15 min at 2500 RCF. Then 1.5 μl of the undiluted supernatant were analysed with UHPLC-UV.
The chemical stability was rated through the relative loss of purity calculated by the equation:
[(purity after 28 days at 5° C.)−(purity after 28 days at 40° C.)]/(purity after 28 days at 5° C.)]*100%
The purity is calculated as
[(peak area peptide)/(total peak area)]*100%
The analytical methods used were Analytical UHPLC Method B or C.
Peptide samples were prepared in Chemical stability buffer system A or B and stability was assessed as described in Methods.

[3] = Chemical stability buffer system A: 20 mM phosphate buffer pH 7.4

Structure (SMILES) | EC50 [1] [nM] | EC50 (human GIP receptor) [nM] | Emax (human GIP receptor) [%] | Soluble amount (physchem) [mg/mL] | solubility at 24 h (physchem) [µg/mL] | Relative purity loss over 28 days at 40° C. [2, 3] [%] | Relative purity loss over 28 days at 40° C. ([2]; Chemical stability buffer system B: 8 mM phosphate buffer pH 7.4, 14 mg/ml propylene glycol, 5.5 mg/ml phenol) [%]
CC[C@H](C)[C@H](NC(=O)[C@H](CCCNC(=N)N)NC(=O)[C@H](CC(=O)O)NC(=O)[C@H](CCCCNC(=O)COCCOCCNC(=O)COCCOCCNC(=O)CC[C@H](NC(=O)CCCCCCCCCCCCCCCCC(=O)O)C(=O)O)NC(=O)C(C)(C)NC(=O)[C@@H](NC(=O)[C@H](CO)NC(=O)[C@H](CC(C)C)NC(=O)[C@H](CC(=O)O)NC(=O)[C@H](CO)NC(=O)[C@@H](NC(=O)[C@H](Cc1ccccc1)NC(=O)[C@@H](NC(=O)CNC(=O)[C@H](CCC(=O)O)NC(=O)C(C)(C)NC(=O)[C@@H](N)Cc1ccc(O)cc1)[C@@H](C)O)[C@@H](C)CC)[C@@H](C)CC)C(=O)N[C@@H](Cc1c[nH]cn1)C(=O)N[C@@H](CCC(N)=O)C(=O)NC(C)(C)C(=O)N[C@@H](CCC(=O)O)C(=O)N[C@@H](Cc1ccccc1)C(=O)N[C@H](C(=O)N[C@@H](CCC(=O)O)C(=O)N[C@@H](Cc1c[nH]c2ccccc12)C(=O)N[C@@H](CC(C)C)C(=O)N[C@@H](CC(C)C)C(=O)N[C@@H](C)C(=O)N[C@@H](CCC(N)=O)C(=O)NCC(=O)N1CCC[C@H]1C(=O)N[C@@H](CO)C(=O)N[C@@H](CO)C(=O)NCC(=O)N[C@@H](C)C(=O)N1CCC[C@H]1C(=O)N1CCC[C@H]1C(=O)N1CCC[C@H]1C(=O)N[C@@H](CO)C(N)=O)[C@@H](C)CC [SEQ ID NO: 4, H2N-Y-Aib-E-G-T-F-I-S-D-I-S-I-Aib-K[{AEEA}2-gGlu-C18OH]-D-R-I-H-Q-Aib-E-F-I-E-W-I-L-A-Q-G-P-S-S-G-A-P-P-P-S-NH2] (H-Y[Aib]EGTFISDLSI[Aib]K([AEEA-AEEA-γGlu-C18 diacid])DRIHQ[Aib]EFIEWLLAQGPSSGAPPPS-NH2) | > 10 | 0.5 | 116 | >8.4 | > 9500 | – | –
CC[C@H](C)[C@H](NC(=O)[C@H](CCCNC(=N)N)NC(=O)[C@H](CC(=O)O)NC(=O)[C@H](CCCCNC(=O)CNC(=O)CNC(=O)CNC(=O)CC[C@H](NC(=O)CCCCCCCCCCCCCCCCC(=O)O)C(=O)O)NC(=O)C(C)(C)NC(=O)[C@@H](NC(=O)[C@H](CO)NC(=O)[C@H](CC(C)C)NC(=O)[C@H](CC(=O)O)NC(=O)[C@H](CO)NC(=O)[C@@H](NC(=O)[C@H](Cc1ccccc1)NC(=O)[C@@H](NC(=O)CNC(=O)[C@H](CCC(=O)O)NC(=O)C(C)(C)NC(=O)[C@@H](N)Cc1ccc(O)cc1)[C@@H](C)O)[C@@H](C)CC)[C@@H](C)CC)C(=O)N[C@@H](Cc1c[nH]cn1)C(=O)N[C@@H](CCC(N)=O)C(=O)NC(C)(C)C(=O)N[C@@H](CCC(=O)O)C(=O)N[C@@H](Cc1ccccc1)C(=O)N[C@H](C(=O)N[C@@H](CCC(=O)O)C(=O)N[C@@H](Cc1c[nH]c2ccccc12)C(=O)N[C@@H](CC(C)C)C(=O)N[C@@H](CC(C)C)C(=O)N[C@@H](C)C(=O)N[C@@H](CCC(N)=O)C(=O)NCC(=O)N1CCC[C@H]1C(=O)N[C@@H](CO)C(=O)N[C@@H](CO)C(=O)NCC(=O)N[C@@H](C)C(=O)N1CCC[C@H]1C(=O)N1CCC[C@H]1C(=O)N1CCC[C@H]1C(=O)N[C@@H](CO)C(N)=O)[C@@H](C)CC [SEQ ID NO: 5, H2N-Y-Aib-E-G-T-F-I-S-D-I-S-I-Aib-K[{Gly}3-gGlu-C18OH]-D-R-I-H-Q-Aib-E-F-I-E-W-I-L-A-Q-G-P-S-S-G-A-P-P-P-S-NH2] (H-Y[Aib]EGTFISDLSI[Aib]K([Gly-Gly-Gly-γGlu-C18 diacid])DRIHQ[Aib]EFIEWLLAQGPSSGAPPPS-NH2) | > 10 | 0.5 | 137 | >8.3 | > 9300 | 5.8 | –
CC[C@H](C)[C@H](NC(=O)[C@H](Cc1ccccc1)NC(=O)[C@H](CCC(=O)O)NC(=O)[C@H](CCC(=O)O)NC(=O)[C@H](CCC(N)=O)NC(=O)[C@H](Cc1c[nH]cn1)NC(=O)[C@@H](NC(=O)[C@H](CCCNC(=N)N)NC(=O)[C@H](CC(=O)O)NC(=O)[C@H](CCCCNC(=O)COCCOCCNC(=O)COCCOCCNC(=O)CC[C@H](NC(=O)CCCCCCCCCCCCCCCCC(=O)O)C(=O)O)NC(=O)C(C)(C)NC(=O)[C@@H](NC(=O)[C@H](CO)NC(=O)[C@H](CC(C)C)NC(=O)[C@H](CC(=O)O)NC(=O)[C@H](CO)NC(=O)[C@@H](NC(=O)[C@H](Cc1ccccc1)NC(=O)[C@@H](NC(=O)CNC(=O)[C@H](CCC(=O)O)NC(=O)C(C)(C)NC(=O)[C@@H](N)Cc1ccc(O)cc1)[C@@H](C)O)[C@@H](C)CC)[C@@H](C)CC)[C@@H](C)CC)C(=O)N[C@@H](CCC(=O)O)C(=O)N[C@@H](Cc1c[nH]c2ccccc12)C(=O)N[C@@H](CC(C)C)C(=O)N[C@@H](CC(C)C)C(=O)N[C@@H](C)C(=O)N[C@@H](CCC(N)=O)C(=O)NCC(=O)N1CCC[C@H]1C(=O)N[C@@H](CO)C(=O)N[C@@H](CO)C(=O)NCC(=O)N[C@@H](C)C(=O)N1CCC[C@H]1C(=O)N1CCC[C@H]1C(=O)N1CCC[C@H]1C(=O)N[C@@H](CO)C(N)=O [SEQ ID NO: 9, H2N-Y-Aib-E-G-T-F-I-S-D-I-S-I-Aib-K[{AEEA}2-gGlu-C18OH]-DRIHQEEFIEWILAQGPSSGAPPPS-NH2] (H-Y[Aib]EGTFISDLSI[Aib]K([AEEA-AEEA-γGlu-C18 diacid])DRIHQEEFIEWLLAQGPSSGAPPPS-NH2) | > 10 | – | 125 | – | – | 6.9 | 8.2
